Read-outs that look alike come from different tables or passages of the source. Square brackets hold non-standard residues; d marks the D form. Ends that are not written are not given here. Peptide text beside a SMILES is read from it. dPhe(4-NO2) = N[C@H](Cc1ccc([N+](=O)[O-])cc1)C(=O)O; dPhe(F5) = N[C@H](Cc1c(F)c(F)c(F)c(F)c1F)C(=O)O; dBpa = N[C@H](Cc1ccc(C(=O)c2ccccc2)cc1)C(=O)O; dCha = N[C@H](CC1CCCCC1)C(=O)O
Legend:
[1] = system: MIAPaCa2; conditions: three hours exposure
Experimental: The medium was changed and incubated an additional 24, 48 or 72 hour. Following incubation, 20 μl of alamarBlue 90% reagent was added to each well for another 6 hours for detection of cell viability by fluorescent intensity. Fluorescent intensity was measured using a Spectrafluor Plus plate reader with exitation 530 nm and emission 590 nm. The IC50 was calculated (Table 6).

[2] = system: CT26WT; assay: CT26WT s.c. syngeneic tumor model in Balb/c mice (Example 9); type: in vivo, mouse; conditions: CDDP 5 mg/kg, CBP501 7.5 mg/kg, anti-mPD1 200 ug, 3 dosing cycles
Experimental: Relative sizes of tumors were plotted versus the number of days after initiation of the treatment.
All animal studies were conducted according to the protocols approved by the institutional animal care committee of CanBas Co. Ltd. Six-week-old female Balb/c mice (Charles River Laboratories Japan Inc.) were inoculated subcutaneously in the flank with a suspension of CT26WT (5×10^5 cells). […] Tumor volumes, measured thrice weekly with a pair of calipers, were calculated with the following formula: volume (mm^3)=[width (mm)]^2×length (mm)/2. Growth curves after treatment were generated by plotting the mean+/−SE of tumor sizes.
Treatments were initiated when tumor size were reached (˜100 mm^3).

[3] = system: Jurkat cells; assay: G2 checkpoint abrogation, flow cytometry of bleomycin treated Jurkat cells; type: cell-based, human; conditions: for G2 abrogating dose: dose with 40 μg/ml bleomycine giving detectable G2 checkpoint abrogation, 24 hours; for G2 checkpoint abrogating activity (in words): Jurkat cells with bleomycin 40 μg/ml
Experimental: Flow cytometry analysis of G2 checkpoint abrogation was performed using human leukemia derived Jurkat cell line. In brief, cultured cells were treated with various doses of peptide/peptidomimetic and 40 μg/ml bleomycine for 24 hr. The DNA of the cells was stained with propidium iodide and analyzed by flow cytometry.
The G2 checkpoint abrogating activity of various arginine rich sequences at different doses on cells treated with bleomycine was studied. Briefly, peptides were added to culture medium of Jurkat cells with bleomycin (40 μg/ml) at 0.2 μg/ml, 0.39 μg/ml, 0.78 μg/ml, 1.56 μg/ml, 3.125 μg/ml, 6.25 μg/ml, 12.5 μg/ml, 25 μg/ml and 50 μg/ml. Cells were subsequently harvested after 24 hours, stained with Krishan's solution, and analyzed with flow cytometry as previously described.

[4] = system: Jurkat cells; assay: Side effect of peptide used alone: Jurkat cell cycle disturbance (flow cytometry); type: cell-based; conditions: dose that produced Jurkat cell cycle disturbance, peptide alone
Experimental: Cell-cycle analysis The cell cycle status of the cells treated with bleomycin or adriamcin were analyzed by flow cytometry as described by Kawabe (1997) Nature 385:454-458. In brief, two million cells were re-suspended and incubated in 200 μl Krishan's solution (0.1% Sodium citrate, 50 μg/ml PI, 20 μg/ml RNase A and 0.5% NP-40) for 1 hr at 4° C. and analyzed by a flow cytometry, FACScan™ (Beckton Dickinson, Mountain View, Calif.) with the program CELLQuest™ (Beckton Dickinson).
(§1) The “Appearance of side effect when used alone” indicates the peptide/peptidomimetic dose that produced Jurkat cell cycle disturbance, i.e., the appearance of significant amounts of SubG1 cells (dead cells) or cells in which the DNA content of each varies more than usual. […] The “G2 abrogating dose” indicates the peptide/peptidomimetic dose with 40 μg/ml bleomycine that produced detectable G2 checkpoint abrogation activity following treatment for 24 hours. The “Appearance of side effect when used with colchicine” indicates the peptide/peptidomimetic dose with 5 μg/ml colchicine that produced Jurkat cell cycle disturbance following treatment for 24 hours.

[5] = system: Jurkat cells; assay: M phase checkpoint abrogation / non specific toxicity, colchicine treated Jurkat cells; type: cell-based; conditions: dose with 5 μg/ml colchicine that produced Jurkat cell cycle disturbance, 24 hours
Experimental: Flow cytometry analysis of M phase checkpoint abrogation by the compounds was performed using human T cell leukemia Jurkat cell line treated with colchicine (5 μg/ml or 0.5 μg/ml) and various doses of peptide/peptidomimetics for 24 hr (FIG. 12). The DNA of the cells was stained and analyzed by flow cytometry as described above.
as §1
A comparison between G2 checkpoint abrogating activity and non specific toxicity (M checkpoint abrogation) by CB501 was performed. In brief, Jurkat cells were treated with 40 μg/ml bleomycin or 0.5 μg/ml colchicine for G2 checkpoint abrogating activity and non specific toxicity, respectively. The DNA amount in each of the treated cells was analyzed by flow cytometry, as previously described.

[6] = target: T1, recombinant human full length Chk1 (Homo sapiens, UniProt O14757); assay: In vitro kinase inhibition (CycLex), phosphorylation of serine 216 on GST-Cdc25C; type: biochemical
T1 construct: baculovirus derived recombinant human full length Chk1 with histidine tag; histidine tag; host or cells: baculovirus system (insect cells) for Chk1; E. coli for the GST-Cdc25C substrate
T1 sequence (O14757 1-476): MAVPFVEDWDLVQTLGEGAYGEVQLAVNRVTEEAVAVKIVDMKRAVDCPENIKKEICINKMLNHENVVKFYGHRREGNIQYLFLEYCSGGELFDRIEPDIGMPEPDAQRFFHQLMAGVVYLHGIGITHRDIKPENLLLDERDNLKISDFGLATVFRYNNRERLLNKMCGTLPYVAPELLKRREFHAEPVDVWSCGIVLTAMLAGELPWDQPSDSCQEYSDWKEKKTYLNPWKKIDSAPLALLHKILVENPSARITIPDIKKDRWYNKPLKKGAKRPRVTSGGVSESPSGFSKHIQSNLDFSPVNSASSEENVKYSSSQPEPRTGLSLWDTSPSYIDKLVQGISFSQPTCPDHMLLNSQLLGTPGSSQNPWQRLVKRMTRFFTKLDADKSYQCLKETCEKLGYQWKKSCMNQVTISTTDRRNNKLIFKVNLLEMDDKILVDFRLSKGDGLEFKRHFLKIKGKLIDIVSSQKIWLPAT
Experimental: (§2) In vitro kinase inhibition analysis was performed by CycLex, Co. Ltd., Nagano, Japan. Briefly, baculovirus derived recombinant human full length Chk1 with histidine tag or E. Coli derived recombinant human full length Chk2 fused with GST were used as kinases. E. Coli derived recombinant GST-Cdc25C (amino acis 167-267) was used as a substrate. Reaction conditions were 20 mM Hepes-KOH (pH7.5), 1 mM DTT, 80 μg/ml BSA, 10 mM MgCl2 and […] at 30 degree for 60 min. The phosphorylation of serine 216 on GST-Cdc25C was detected by anti-Cdc25C-phosphorylated 5216 antibody with enzyme linked immune assay.

[7] = target: T2, recombinant human full length Chk2 (Homo sapiens, UniProt O96017); assay: as above; type: biochemical
T2 construct: E. Coli derived recombinant human full length Chk2 fused with GST; host or cells: E. coli
Experimental: as §2

[8] = Human serum treatment analysis (residual G2 checkpoint abrogating activity); type: in vitro ADME; conditions: 37 degrees
Experimental: Serum analysis was performed to determine the stability of peptides in mouse and human serum. Briefly, peptides (10 mM or 2.5 mM) were incubated with freshly prepared human serum at 37 degrees for 1 hr. […] Jurkat cells were treated with the serum with or without peptides and bleomycin (40 μg/ml) and incubated for 24 hr. The population of G2 phase cells was determined by flow cytometry as previously described. The residual G2 checkpoint abrogating activity of serum treated peptides were determined by comparing the % G2 cells of the treated serum and the standard curve produced with medium treated peptides, bleomycin and Jurkat cells (Table 5A).

T2 sequence (O96017 whole entry, the tested form may be a part): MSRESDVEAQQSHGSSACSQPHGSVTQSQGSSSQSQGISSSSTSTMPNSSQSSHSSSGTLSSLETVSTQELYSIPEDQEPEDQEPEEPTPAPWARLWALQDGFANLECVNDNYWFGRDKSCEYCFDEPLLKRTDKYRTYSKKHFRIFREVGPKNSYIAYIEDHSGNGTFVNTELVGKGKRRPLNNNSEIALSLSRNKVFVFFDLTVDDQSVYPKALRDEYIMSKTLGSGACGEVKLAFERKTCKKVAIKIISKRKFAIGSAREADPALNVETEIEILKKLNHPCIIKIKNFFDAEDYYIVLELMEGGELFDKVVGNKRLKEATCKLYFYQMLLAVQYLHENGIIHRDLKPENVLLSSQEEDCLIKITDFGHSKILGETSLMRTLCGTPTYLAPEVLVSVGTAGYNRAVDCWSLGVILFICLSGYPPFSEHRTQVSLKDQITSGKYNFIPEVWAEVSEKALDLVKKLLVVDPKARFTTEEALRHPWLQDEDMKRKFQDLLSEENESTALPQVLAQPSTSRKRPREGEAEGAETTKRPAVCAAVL

## N.N.[Cl][Pt][Cl] [cisplatin, cis-diamminodichloroplatinum, reference compound]
[1]; read-out: IC50 24 hr, additional 24 hour
  IC50: 16 µM
[1]; read-out: IC50 48 hr, additional 48 hour
  IC50: 31 µM
[1]; read-out: IC50 72 hr, additional 72 hour
  IC50: 46 µM
[2]
  Reduction of tumor growth as compared to vehicle-treated mice: 52.7%

## N=C(N)NCCC[C@@H](NC(=O)[C@@H](CCCNC(=N)N)NC(=O)[C@@H](CCC(N)=O)NC(=O)[C@@H](CCCNC(=N)N)NC(=O)[C@@H](CCCNC(=N)N)NC(=O)[C@@H](CCCNC(=N)N)NC(=O)[C@@H](CC1CCCCC1)NC(=O)[C@@H](Cc1c(F)c(F)c(F)c(F)c1F)NC(=O)[C@@H](CO)NC(=O)[C@@H](Cc1c[nH]c2ccccc12)NC(=O)[C@@H](CO)NC(=O)[C@@H](Cc1ccc(C(=O)c2ccccc2)cc1)NC(=O)[C@H](N)Cc1ccc(O)cc1)C(=O)O [CBP500, (d-Tyr)(d-Bpa)(d-Ser)(d-Trp)(d-Ser)(d-Phe-2,3,4,5,6-F)(d-Cha)(d-Arg)(d-Arg)(d-Arg)(d-Gln)(d-Arg)(d-Arg)] (H-[dY][dBpa][dS][dW][dS][dPhe(F5)][dCha][dR][dR][dR][dQ][dR][dR]-OH; N-terminus and C-terminus assumed)
[3]
  G2 abrogating dose: ≥0.39 µM
[4]
  Appearance of side effect when used alone: >50 µM
[5]
  Appearance of side effect when used with Colchicine: >12.5 µM
[6]
  IC50: 5.6 µM
[7]
  IC50: 8 µM

## (d-Arg)(d-Arg)(d-Arg)(d-Bpa)(d-Arg)(d-Arg)(d-Arg)(d-Phe-2,3,4,5,6-F)(d-Cha) ([dR][dR][dR][dBpa][dR][dR][dR][dPhe(F5)][dCha]) [CBP703]
[3]
  G2 checkpoint abrogating activity (in words): retain G2 checkpoint abrogating activity comparable to other peptides having significant G2 checkpoint abrogating activity

## (d-Arg)(d-Arg)(d-Bpa)(d-Arg)(d-Arg)(d-Arg)(d-Phe-2,3,4,5,6-F)(d-Cha) ([dR][dR][dBpa][dR][dR][dR][dPhe(F5)][dCha]) [CBP700]
[3]
  G2 checkpoint abrogating activity (in words): retain G2 checkpoint abrogating activity comparable to other peptides having significant G2 checkpoint abrogating activity

## N=C(N)NCCC[C@H](NC(=O)CNC(=O)[C@@H](N)Cc1ccc(O)cc1)C(=O)N[C@@H](CCCCN)C(=O)N[C@@H](CCCCN)C(=O)N[C@@H](CCCNC(=N)N)C(=O)N[C@@H](CCCNC(=N)N)C(=O)N[C@@H](CCC(N)=O)C(=O)N[C@@H](CCCNC(=N)N)C(=O)N[C@@H](CCCNC(=N)N)C(=O)N[C@@H](CCCNC(=N)N)C(=O)N[C@@H](CC1CCCCC1)C(=O)N[C@@H](Cc1c(F)c(F)c(F)c(F)c1F)C(=O)N[C@@H](CCCNC(=N)N)C(=O)N[C@@H](CO)C(=O)N1CCC[C@H]1C(=O)N[C@@H](CO)C(=O)N[C@@H](Cc1ccc(O)cc1)C(=O)N[C@@H](Cc1ccc(O)cc1)C(=O)O [CBP413, (1-Tyr)(1-Gly)(1-Arg)(1-Lys)(1-Lys)(1-Arg)(1-Arg)(1-Gln)(1-Arg)(1-Arg)(1-Arg)(1-Cha)(1-Phe-2,3,4,5,6-F)(1-Arg)(1-Ser)(1-Pro)(1-Ser)(1-Tyr)(1-Tyr)]
[3]
  G2 abrogating dose: ≥1.56 µM
[4]
  Appearance of side effect when used alone: >25 µM
[5]
  Appearance of side effect when used with Colchicine: >25 µM
[8]
  Residual activity of peptide after 1 hr human serum treatment: <0.4% of original

## N=C(N)NCCC[C@@H](NC(=O)[C@@H](CCCNC(=N)N)NC(=O)[C@@H](CCC(N)=O)NC(=O)[C@@H](CCCNC(=N)N)NC(=O)[C@@H](CCCNC(=N)N)NC(=O)[C@@H](CCCNC(=N)N)NC(=O)[C@@H](CC1CCCCC1)NC(=O)[C@@H](Cc1ccc([N+](=O)[O-])cc1)NC(=O)[C@@H](CO)NC(=O)[C@@H](Cc1c[nH]c2ccccc12)NC(=O)[C@@H](CO)NC(=O)[C@H](N)Cc1ccc(C(=O)c2ccccc2)cc1)C(=O)O [CBP603, (d-Bpa)(d-Ser)(d-Trp)(d-Ser)(d-Phe4No2)(d-Cha)(d-Arg)(d-Arg)(d-Arg)(d-Gln)(d-Arg)(d-Arg)] (H-[dBpa][dS][dW][dS][dPhe(4-NO2)][dCha][dR][dR][dR][dQ][dR][dR]-OH; N-terminus and C-terminus assumed)
[6]
  IC50: 15.5 µM
[7]
  IC50: 18.1 µM
[8]
  Residual activity of peptide after 1 hr human serum treatment: >50% of original

## N=C(N)NCCC[C@@H](NC(=O)[C@@H](CCCNC(=N)N)NC(=O)[C@@H](CCC(N)=O)NC(=O)[C@@H](CCCNC(=N)N)NC(=O)[C@@H](CCCNC(=N)N)NC(=O)[C@@H](CCCNC(=N)N)NC(=O)[C@@H](CC1CCCCC1)NC(=O)[C@@H](Cc1c(F)c(F)c(F)c(F)c1F)NC(=O)[C@@H](CO)NC(=O)[C@@H](Cc1c[nH]c2ccccc12)NC(=O)[C@@H](CO)NC(=O)[C@@H](CC(=O)O)NC(=O)[C@H](N)Cc1ccc(C(=O)c2ccccc2)cc1)C(=O)O [CBP505, (d-Bpa)(d-Asp)(d-Ser)(d-Trp)(d-Ser)(d-Phe-2,3,4,5,6-F)(d-Cha)(d-Arg)(d-Arg)(d-Arg)(d-Gln)(d-Arg)(d-Arg)] (H-[dBpa][dD][dS][dW][dS][dPhe(F5)][dCha][dR][dR][dR][dQ][dR][dR]-OH; N-terminus and C-terminus assumed)
[6]
  IC50: 63.4 µM
[7]
  IC50: > 100 µM
